Laboratory results published in patent US4250259A, “Microbiological production of ketones from C3 -C6 secondary alcohols” (priority 1979, dated 1981).
Where two headings read alike, the source gives them in different places.

What was measured:
[1] = test system: secondary alcohol dehydrogenase (SADH), cell-free soluble extract; settings: Growth Substrate CH4
Procedure: (§1) To prepare the cell-free secondary alcohol dehydrogenase (SADH) system, the washed cells were disrupted with a Wave Energy Ultrasonic Oscillator, Model W201 (Wave Energy System, Inc., Newtown, Pa.) and centrifuged at 20,000×g. for 30 minutes. […] The enzyme activity was measured with a fluorescence spectrophotometer (Perkin Elmer, Model MPF 44A) by following the formation of reduced NAD (EX 340 nm, Em 460 nm). The formation of reduced NAD was also followed with an absorption spectrophotometer at 340 nm. The assay system (3 ml.) contained: potassium phosphate buffer pH 7.0; 150 μmol.; NAD 1 μmol.; a given amount of enzyme preparation; and secondary alcohol 10 μmol. The reaction was started by the addition of substrate. One unit of enzyme activity represents the reduction of one μmole NAD per minute. Protein concentrations were determined by the Lowry method (J. Biol. Chem., 193: 255-275 (1951)).
(§2) The experimental procedure for the tests reported in Table VIII were as follows: 1 mg protein of crude extract was added into a 0.5 ml. 0.05 M phosphate buffer (pH 7.0) in a 10-ml. vial. […] The reaction mixture was incubated at 30° C. on a water bath. A 3 μl sample was removed with a syringe at 15 min. of incubation and was assayed with g.l.c. Catalytic activity was also assayed by fluorescence spectrophotometry.

[2] = test system: secondary alcohol dehydrogenase, crude extracts; settings: 2-butanol as a substrate; extracts of methanol-grown yeast
Procedure: (§3) Cell suspensions (2 g. wet weight) of packed cells in 10 ml. of 50 mM sodium phosphate buffer, pH 7.0 at 4° C. were disrupted by sonication with a Megason ultrasonic disintegration. The sonicated cell suspensions were centrifuged for 15 minutes at 30,000×g. The supernantant liquid was termed the crude extracts.
(§4) Secondary alcohol dehydrogenase activity was measured spectrophotometrically at 340 nm with a NAD^+ as an electron acceptor. The reaction mixture, in a total 3.0 ml., contained 50 mM phosphate buffer, pH 8.0, 5 μmoles NAD^+, crude extracts, and substrate. The reactions were started by addition of 100 μl of 0.1 M substrate and the rate of NAD^+ reduction was measured. Protein concentration was determined by the method of Lowry et al.
(§5) Oxidation of secondary alcohols were also estimated spectrophotometrically by measuring the reduction of NAD^+. […] NRRL Y-11,328 Torulopsis sp.

[3] = test system: secondary alcohol dehydrogenase (SADH), cell-free soluble extract; settings: Growth Substrate CH4; remark: listed apart in the source
Procedure: as §1, §2

[4] = test system: secondary alcohol dehydrogenase (SADH), cell-free soluble extract; settings: Growth Substrate CH3 OH
Procedure: as §1, §2

[5] = test system: secondary alcohol dehydrogenase, crude extracts; settings: 2-butanol as a substrate; extracts of methanol-grown yeast; remark: listed apart in the source
Procedure: as §3, §4, §5

[6] = test system: secondary alcohol dehydrogenase, crude extracts; settings: 2-butanol as a substrate; extracts of methanol-grown yeast; remark: listed apart in the source
Procedure: as §3, §4, §5

[7] = test system: secondary alcohol dehydrogenase (SADH), cell-free soluble extract; settings: Growth Substrate CH4; remark: listed apart in the source
Procedure: as §1, §2

[8] = test system: secondary alcohol dehydrogenase (SADH), cell-free soluble extract; settings: Growth Substrate CH4; remark: listed apart in the source
Procedure: as §1, §2

[9] = test system: secondary alcohol dehydrogenase, crude extracts; settings: 2-butanol as a substrate; extracts of methanol-grown yeast; remark: listed apart in the source
Procedure: as §3, §4, §5

[10] = test system: secondary alcohol dehydrogenase (SADH), cell-free soluble extract; settings: Growth Substrate CH3 OH; remark: listed apart in the source
Procedure: as §1, §2

[11] = test system: secondary alcohol dehydrogenase (SADH), cell-free soluble extract; settings: Growth Substrate CH3 OH; remark: listed apart in the source
Procedure: as §1, §2

[12] = test system: secondary alcohol dehydrogenase (SADH), cell-free soluble extract
Procedure: as §1, §2

[13] = test system: secondary alcohol dehydrogenase (SADH), cell-free soluble extract; settings: Growth Substrate CH4; remark: listed apart in the source
Procedure: as §1, §2

[14] = test system: secondary alcohol dehydrogenase (SADH), cell-free soluble extract; settings: Growth Substrate CH3 OH; remark: listed apart in the source
Procedure: as §1, §2

[15] = test system: secondary alcohol dehydrogenase (SADH), cell-free soluble extract; settings: Growth Substrate CH4; remark: listed apart in the source
Procedure: as §1, §2

[16] = test system: secondary alcohol dehydrogenase (SADH), cell-free soluble extract; remark: listed apart in the source
Procedure: as §1, §2

[17] = test system: secondary alcohol dehydrogenase (SADH), cell-free soluble extract; settings: Growth Substrate CH4; remark: listed apart in the source
Procedure: as §1, §2

[18] = test system: secondary alcohol dehydrogenase, crude extracts; settings: 2-butanol as a substrate; extracts of methanol-grown yeast; remark: listed apart in the source
Procedure: as §3, §4, §5

[19] = test system: secondary alcohol dehydrogenase (SADH), cell-free soluble extract; settings: Growth Substrate CH3 OH; remark: listed apart in the source
Procedure: as §1, §2

[20] = test system: Candida boidinii NRRL Y-2332; settings: cell suspensions
Procedure: (§6) The cells were harvested during exponential growth by centrifugation at 12,000×g. for 15 min. The cell pellet was washed twice with 50 mM phosphate buffer, pH 7. The final pellet was resuspended in the same buffer. Cell suspensions of yeasts grown on ethanol, methylamine, and methylformate were prepared as described above using 0.4 v/v ethanol, 10 mM methylamine and 10 mM methylformate as the sole source of carbon and energy.
(§7) A 1 ml. aliquot of each washed cell suspension of yeasts grown on various carbon sources was put into 10 ml. vials at 40° C. […] The vials were then incubated at 30° C. on a rotary water bath shaker at 200 rpm. The product of oxidation of secondary alcohols was detected by gas chromatography retention time comparison and co-chromatography with authentic standard.

[21] = test system: Pichia pastoris NRRL Y-55; settings: cell suspensions
Procedure: as §6, §7

[22] = test system: Hansenula anomala NRRL Y-336; settings: cell suspensions
Procedure: as §6, §7

[23] = test system: cell-free extracts of strain ATCC 21439; experiment: stoichiometry of production of 2-butanone from 2-butanol by cell-free extracts (Table IX); assay type: biochemical, Pseudomonas sp. ATCC 21,439; settings: 30° C., 1.0 mg protein, 1.0 μmoles NAD, 10 μmoles 2-butanol
Procedure: The reaction mixtures 3 ml (1.0 mg protein) were incubated at 30°
^(a) Determined gas chromatographically.
^(b) Determined fluorescence spectrophotometrically.
consumption of NAD was corrected.

[24] = test system: secondary alcohol dehydrogenase (SADH), cell-free soluble extract; settings: Growth Substrate CH3 OH; remark: listed apart in the source
Procedure: as §1, §2

[25] = test system: secondary alcohol dehydrogenase (SADH), cell-free soluble extract; settings: Growth Substrate CH3 OH; remark: listed apart in the source
Procedure: as §1, §2

[26] = test system: secondary alcohol dehydrogenase (SADH), cell-free soluble extract; settings: Growth Substrate CH3 OH; remark: listed apart in the source
Procedure: as §1, §2

## CCC(C)O (stereo not drawn) [2-Butanol, 2-butanol]
[1]
  Conversion Rate, 2-butanol to 2-butanone: 2.6 nmoles/min/mg protein
[2]
  specific activities: 62 nmoles NAD^+ reduced per min. per mg. protein
[3]
  Conversion Rate, 2-butanol to 2-butanone: 0.5 nmoles/min/mg protein
[4]
  Conversion Rate, 2-butanol to 2-butanone: 1.6 nmoles/min/mg protein
[5]
  specific activities: 90 nmoles NAD^+ reduced per min. per mg. protein
[6]
  specific activities: 85 nmoles NAD^+ reduced per min. per mg. protein
[7]
  Conversion Rate, 2-butanol to 2-butanone: 0.8 nmoles/min/mg protein
[8]
  Conversion Rate, 2-butanol to 2-butanone: 1.2 nmoles/min/mg protein
[9]
  specific activities: 105 nmoles NAD^+ reduced per min. per mg. protein
[10]
  Conversion Rate, 2-butanol to 2-butanone: 2.2 nmoles/min/mg protein
[11]
  Conversion Rate, 2-butanol to 2-butanone: 2.4 nmoles/min/mg protein
[12]; Growth Substrate CH3 OH
  Conversion Rate, 2-butanol to 2-butanone: 2.0 nmoles/min/mg protein
[12]; Growth Substrate CH4
  Conversion Rate, 2-butanol to 2-butanone: 1.5 nmoles/min/mg protein
[13]
  Conversion Rate, 2-butanol to 2-butanone: 1.8 nmoles/min/mg protein
[14]
  Conversion Rate, 2-butanol to 2-butanone: 15.0 nmoles/min/mg protein
[15]
  Conversion Rate, 2-butanol to 2-butanone: 1.4 nmoles/min/mg protein
[16]; Growth Substrate CH3 NH2
  Conversion Rate, 2-butanol to 2-butanone: 20.0 nmoles/min/mg protein
[16]; Growth Substrate CH3 OH
  Conversion Rate, 2-butanol to 2-butanone: 23.2 nmoles/min/mg protein
[16]; Growth Substrate HCOOCH3
  Conversion Rate, 2-butanol to 2-butanone: 16.0 nmoles/min/mg protein
[17]
  Conversion Rate, 2-butanol to 2-butanone: 2.5 nmoles/min/mg protein
[18]
  specific activities: 78 nmoles NAD^+ reduced per min. per mg. protein
[19]
  Conversion Rate, 2-butanol to 2-butanone: 5.0 nmoles/min/mg protein
[20]
  conversion rates, 2-butanol to 2-butanone: 6.0 μ moles/hr/mg. protein
[21]
  conversion rates, 2-butanol to 2-butanone: 5.8 μ moles/hr/mg. protein
[22]
  conversion rates, 2-butanol to 2-butanone: 5.5 μ moles/hr/mg. protein
[23]; Experiment 1: 10 min.
  2-Butanol Consumed: 260 nmol
[23]; Experiment 2: 20 min.
  2-Butanol Consumed: 530 nmol
[24]
  Conversion Rate, 2-butanol to 2-butanone: 3.0 nmoles/min/mg protein
[25]
  Conversion Rate, 2-butanol to 2-butanone: 1.5 nmoles/min/mg protein
[26]
  Conversion Rate, 2-butanol to 2-butanone: 2.0 nmoles/min/mg protein
